Data from ChEMBL document CHEMBL1157884, “Synthesis and SAR of heterocyclic carboxylic acid isosteres based on 2-biarylethylimidazole as bombesin receptor subtype-3 (BRS-3) agonists for the treatment of obesity” (Bioorg Med Chem Lett, 2010).

Experiments:
[1] = biological target: T1, Bombesin receptor subtype-3 (Homo sapiens) (UniProt P32247); test: Agonist activity at human BRS3 relative to [D-Tyr6,b-Ala11,Phe13,Nle14]-Bombesin; type: functional
T1 sequence (whole entry): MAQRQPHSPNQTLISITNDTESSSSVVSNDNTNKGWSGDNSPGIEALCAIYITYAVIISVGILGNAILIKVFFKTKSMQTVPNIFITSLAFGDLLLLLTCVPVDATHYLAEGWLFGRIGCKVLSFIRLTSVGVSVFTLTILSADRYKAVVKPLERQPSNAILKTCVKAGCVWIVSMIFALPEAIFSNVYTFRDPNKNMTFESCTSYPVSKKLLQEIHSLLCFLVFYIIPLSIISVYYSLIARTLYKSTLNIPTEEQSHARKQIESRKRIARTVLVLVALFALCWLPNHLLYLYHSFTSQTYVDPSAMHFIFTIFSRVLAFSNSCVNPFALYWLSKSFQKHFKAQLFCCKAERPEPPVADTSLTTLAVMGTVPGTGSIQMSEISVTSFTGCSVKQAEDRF

[2] = biological target: T2, Bombesin receptor subtype-3 (Mus musculus) (UniProt O54798); test: Agonist activity at mouse BRS3 relative to [D-Tyr6,b-Ala11,Phe13,Nle14]-Bombesin; type: functional
T2 sequence (whole entry): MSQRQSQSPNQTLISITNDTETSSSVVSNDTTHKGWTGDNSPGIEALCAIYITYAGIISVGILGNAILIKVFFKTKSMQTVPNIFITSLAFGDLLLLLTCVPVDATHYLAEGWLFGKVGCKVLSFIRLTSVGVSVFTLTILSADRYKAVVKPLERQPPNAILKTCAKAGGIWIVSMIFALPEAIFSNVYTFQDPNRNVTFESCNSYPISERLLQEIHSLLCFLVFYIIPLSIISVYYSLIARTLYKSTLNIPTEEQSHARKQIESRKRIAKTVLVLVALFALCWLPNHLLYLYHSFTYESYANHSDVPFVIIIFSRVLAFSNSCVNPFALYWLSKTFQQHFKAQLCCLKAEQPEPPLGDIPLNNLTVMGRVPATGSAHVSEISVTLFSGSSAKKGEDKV

[3] = biological target: T3, Bombesin receptor subtype-3 (Mus musculus, UniProt O54798); test: Agonist activity at mouse BRS3; type: functional
T3 sequence (O54798 whole entry): T2 sequence (whole entry)

[4] = biological target: T4, Bombesin receptor subtype-3 (Homo sapiens, UniProt P32247); test: Agonist activity at human BRS3; type: functional
T4 sequence (P32247 whole entry): T1 sequence (whole entry)

[5] = biological target: T4, Bombesin receptor subtype-3; test: Binding affinity to human BRS3
[6] = Ratio of drug level in brain to plasma in rat at 1 mg/kg, iv after 1 hr; type: ADME, organism-based; parameters: dose 1 mg/kg, route intravenous
[7] = Total plasma concentration in rat at 1 mg/kg, iv after 1 hr; type: ADME, organism-based; parameters: dose 1 mg/kg, route intravenous
[8] = Drug level in rat brain at 1 mg/kg, iv after 1 hr; type: ADME, organism-based; parameters: dose 1 mg/kg, route intravenous; conditions: read-out: Drug uptake
[9] = Oral bioavailability in rat; type: ADME, organism-based; conditions: in vivo
[10] = Drug level in rat brain at 2 mg/kg, iv after 1 hr; type: ADME, organism-based; parameters: dose 2 mg/kg, route intravenous; conditions: read-out: Drug uptake
[11] = Total plasma concentration in rat at 2 mg/kg, iv after 1 hr; type: ADME, organism-based; parameters: dose 2 mg/kg, route intravenous
[12] = Ratio of drug level in brain to plasma in rat at 2 mg/kg, iv after 1 hr; type: ADME, organism-based; parameters: dose 2 mg/kg, route intravenous

Activity [1] [%] | Activity [2] [%] | EC50 [3] [nM] | EC50 [4] [nM] | IC50 [5] [nM] | SMILES | other results
98 | 118 |  |  |  | CCC(C)(C)Cc1c[nH]c(CCc2ccc3c(c2)CNC(=O)c2ccccc2-3)n1 | 
112 | 85 |  |  |  | c1ccc(-c2nnn[nH]2)c(-c2ccc(CCc3nc(CC4CCCC4)c[nH]3)cc2)c1 | 
114 | 120 | 5.8 | 41 | 6.1 | CCC(C)(C)Cc1c[nH]c(CCc2ccc(-c3ccccc3OCc3nc(=S)[nH][nH]3)cc2)n1 | Kp at 1 h [6]: 0.006; concentration at 1 h [7]: 4960 nM; concentration at 1 h [8]: 30 nM
 |  |  | 336 | 31 | CCC(C)(C)Cc1cnc(CCc2ccc(-c3ccccc3OCc3n[nH]c(=O)[nH]3)cc2)[nH]1 | 
 |  | 16 | 56 | 15 | c1ccc(-c2nnn[nH]2)c(-c2ccc(CCc3ncc(CC4CCCC4)[nH]3)cc2)c1 | 
97 |  |  |  |  | CCC(C)(C)Cc1c[nH]c(CCc2ccc(-c3ccccc3OCC(=O)O)cc2)n1 | 
96 | 119 |  |  |  | CCC(C)(C)Cc1c[nH]c(CCc2ccc3c(c2)CN(C)C(=O)c2ccccc2-3)n1 | 
97 | 113 | 34 | 133 | 31 | CCC(C)(C)Cc1c[nH]c(CCc2ccc(-c3ccccc3O)cc2)n1 | 
 |  |  | 172 | 22 | CCC(C)(C)Cc1c[nH]c(CCc2ccc(-c3ccccc3OCc3nnc[nH]3)cc2)n1 | 
101 | 120 | 13 | 42 |  | CCC(C)(C)Cc1c[nH]c(CCc2ccc(N3CCCc4cn[nH]c43)cc2)n1 | bioavailability [9]: 29%
100 | 119 | 16 | 15 | 6.2 | CCC(C)(C)Cc1c[nH]c(CCc2ccc(N3CCCC[C@@H]3c3nnn[nH]3)cc2)n1 | bioavailability [9]: 4.9%
 |  |  | 54 | 103 | CCC(C)(C)Cc1cnc(CCc2ccc(-c3ccccc3OCC(=O)O)cc2)[nH]1 | 

Continued, compound first:

SMILES | Activity [1] [%] | Activity [2] [%] | EC50 [3] [nM] | EC50 [4] [nM] | IC50 [5] [nM] | other results
CCC(C)(C)Cc1c[nH]c(CCc2ccc(-c3ccccc3OCc3nc(=O)[nH][nH]3)cc2)n1 | 107 |  |  |  |  | 
CCC(C)(C)Cc1cnc(CCc2ccc3c(c2)CN(C)C(=O)c2ccccc2-3)[nH]1 |  |  | 27 | 56 | 20 | 
CCC(C)(C)Cc1cnc(CCc2ccc(-c3ccccc3OCc3cnn[nH]3)cc2)[nH]1 |  |  |  | 399 | 83 | 
CCC(C)(C)Cc1cnc(CCc2ccc(N3CCCC[C@@H]3c3nnc[nH]3)cc2)[nH]1 |  |  | 13 | 42 | 26 | bioavailability [9]: 4.8%
CCC(C)(C)Cc1c[nH]c(CCc2ccc(-c3ccccc3OCc3nc(N)n[nH]3)cc2)n1 | 98 | 115 | 4.6 | 78 | 27 | Kp at 1 h [6]: 0.016; concentration at 1 h [7]: 860 nM; concentration at 1 h [8]: 10 nM
CCC(C)(C)Cc1c[nH]c(CCc2ccc(-c3ccccc3OCc3cnn[nH]3)cc2)n1 | 97 |  |  |  |  | 
CCC(C)(C)Cc1c[nH]c(CCc2ccc(N3CCCC[C@@H]3c3ncn[nH]3)cc2)n1 | 96 | 117 |  |  |  | 
CCC(C)(C)Cc1cnc(CCc2ccc3c(c2)CNC(=O)c2ccccc2-3)[nH]1 |  |  | 11 | 29 | 10 | Kp at 1 h [6]: 0.068; concentration at 1 h [7]: 310 nM; concentration at 1 h [8]: 20 nM
CCC(C)(C)Cc1c[nH]c(CCc2ccc(-c3ccccc3OCc3nnn[nH]3)cc2)n1 | 111 | 109 | 2.9 | 30 |  | concentration at 1 h [10]: 10 nM; concentration at 1 h [11]: 1250 nM; Kp at 1 h [12]: 0.01
CCC(C)(C)Cc1c[nH]c(CCc2ccc(-c3ccccc3OCc3ncn[nH]3)cc2)n1 | 113 |  |  |  |  | 
CCC(C)(C)Cc1c[nH]c(CCc2ccc(-c3ccccc3OCc3nc(C(F)(F)F)n[nH]3)cc2)n1 | 89 | 122 | 12 | 129 | 127 | 
O=C1NC(=O)C(c2ccccc2-c2ccc(CCC3N=CC(CC4CCCC4)=N3)cc2)S1 (stereo unspecified) | 94 |  |  | 1770 | 287 | 
CCC(C)(C)Cc1c[nH]c(CCc2ccc(N3CCCC[C@@H]3C(=O)O)cc2)n1 | 100 | 111 | 12 | 24 | 5.3 | Kp at 1 h [6]: 0.04; concentration at 1 h [7]: 210 nM; concentration at 1 h [8]: 10 nM
